{"source": "patent US20250210201A1", "about": "(priority 2022, published 2025)", "key": {"complex II": {"target": "T1, complex II (Rattus norvegicus, UniProt P21913+Q641Z9+Q6PCT8+Q920L2)", "T1 construct": "host or cells: rat PD model", "T1 sequence (Q920L2 35-656)": "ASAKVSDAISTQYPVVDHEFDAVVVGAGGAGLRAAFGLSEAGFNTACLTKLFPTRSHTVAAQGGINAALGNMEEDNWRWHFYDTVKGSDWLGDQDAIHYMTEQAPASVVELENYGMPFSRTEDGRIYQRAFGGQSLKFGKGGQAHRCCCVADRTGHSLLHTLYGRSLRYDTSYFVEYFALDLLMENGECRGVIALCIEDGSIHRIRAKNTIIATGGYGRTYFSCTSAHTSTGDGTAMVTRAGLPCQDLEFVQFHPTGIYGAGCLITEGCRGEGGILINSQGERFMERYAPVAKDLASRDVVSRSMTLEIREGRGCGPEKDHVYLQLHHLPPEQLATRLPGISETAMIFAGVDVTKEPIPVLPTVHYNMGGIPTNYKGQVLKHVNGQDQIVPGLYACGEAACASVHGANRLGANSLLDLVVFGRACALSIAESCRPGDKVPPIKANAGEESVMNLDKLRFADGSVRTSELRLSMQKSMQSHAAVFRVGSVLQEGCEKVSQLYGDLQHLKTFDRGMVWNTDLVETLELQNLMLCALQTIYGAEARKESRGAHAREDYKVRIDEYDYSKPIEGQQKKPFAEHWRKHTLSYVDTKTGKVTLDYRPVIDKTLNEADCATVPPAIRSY", "T1 sequence (P21913 31-282)": "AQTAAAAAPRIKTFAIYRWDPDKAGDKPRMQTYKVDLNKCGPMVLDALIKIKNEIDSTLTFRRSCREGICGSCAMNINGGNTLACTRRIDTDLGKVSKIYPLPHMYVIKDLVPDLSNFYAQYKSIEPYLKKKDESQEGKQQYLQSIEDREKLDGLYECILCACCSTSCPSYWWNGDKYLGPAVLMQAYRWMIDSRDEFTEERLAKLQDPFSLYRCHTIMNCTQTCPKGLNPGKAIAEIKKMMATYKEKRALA", "T1 sequence (Q641Z9 1-169)": "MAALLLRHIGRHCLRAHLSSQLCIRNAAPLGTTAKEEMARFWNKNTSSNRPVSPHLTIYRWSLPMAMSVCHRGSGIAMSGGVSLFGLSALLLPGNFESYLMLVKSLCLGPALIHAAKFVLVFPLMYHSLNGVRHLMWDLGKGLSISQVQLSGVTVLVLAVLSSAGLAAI", "T1 sequence (Q6PCT8 57-159)": "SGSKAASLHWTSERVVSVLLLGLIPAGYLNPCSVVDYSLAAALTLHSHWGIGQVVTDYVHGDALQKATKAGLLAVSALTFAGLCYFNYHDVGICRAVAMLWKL", "settings": "rat PD model; Jiang X et al. 2016; cited from earlier work"}, "primary skin fibroblasts": {"test_system": "primary skin fibroblasts", "settings": "uncoupler as positive control (50 μM per method), 30 minutes", "procedure": "Primary skin fibroblasts (10,000 cells per well) were seeded into Cell Carrier Ultra 96-well plates. The next day, fibroblast medium was removed and replaced by FBS-deprived DMEM containing 100 nM Tetramethylrhodamine, Ethyl Ester, Perchlorate (TMRE), a fluorescent dye that specifically accumulates in active, polarized mitochondria, or vehicle only (DMSO). The mitochondrial OXPHOS (OXPHOS-mito) uncoupler carbonyl cyanide m-chlorophenyl hydrazone (CCCP) was used—at the concentration of 50 μM—as a positive control of TMRE staining. Nuclei were stained with 1 μg/ml Hoechst 33342. Cells were incubated in the dark at 37° C. for 30 minutes before proceeding with high-throughput automated confocal microscopy analysis. Z-stack images were acquired at 20× magnification using the CellVoyager CV8000 High-Content Screening System.\nAn in-house Matlab image processing pipeline was used to quantify TMRE signal. The mitochondria channel was sum-projected on the x-y plane and preprocessed using a DoG filter of 33 pixel side-length, and sigmas set to 1 and 1.5 pixels, prior to thresholding (>10). Connected components with less than 6 pixels were removed from mitochondrial analysis. Total mitochondrial TMRE fluorescence intensity per field was normalized to nuclear area. […] Nine fields per well and at least two wells per condition were assessed for each of the three independent biological replicates."}, "[1]": {"test_system": "mitochondiral complex I, II and IV", "settings": "Kumar M et al. 2020; worded as 'proposed'; cited from earlier work"}, "Complex I": {"test_system": "Complex I", "settings": "rat model; Amarsanaa K et al. 2021; cited from earlier work"}}}
{"smiles": "COc1ccc(Cn2cc(-c3cc(C(F)(F)F)nc(S(C)(=O)=O)n3)ccc2=O)cc1OC", "note": "[Compound A, 1-(3,4-dimethoxybenzyl)-5-(2-(methylsulfonyl)-6-(trifluoromethyl)pyrimidin-4-yl) pyridin-2 (1H)]", "values": [{"measurement": "dopaminergic neurons' death", "setting": "complex II", "value": "preventing dopaminergic neurons' death"}]}
{"smiles": "N#CC(C#N)=NNc1ccc(OC(F)(F)F)cc1", "note": "[FCCP, carbonyl cyanide p-trifluoromethoxyphenyl hydrazone]", "values": [{"measurement": "TMRE fluorescence (mitochondrial membrane potential, Δψm)", "setting": "primary skin fibroblasts", "value": "robust reduction of TMRE fluorescence"}]}
{"smiles": "[Na+].[SH-]", "note": "[NaHS]", "values": [{"measurement": "complex I, II and IV mediated oxygen consumption rate", "setting": "[1]", "value": "increasing mitochondiral complex I, II and IV mediated oxygen consumption rate"}]}
{"smiles": "COc1ccc(-c2cc(=O)c3c(OC)c(OC)c(OC)c(OC)c3o2)cc1OC", "note": "[Nobiletin, 5,6,7,8,3′,4′-hexamethoxyflavone]", "values": [{"measurement": "activity of complex I", "setting": "Complex I", "value": "restore activity of complex I"}]}
